Data from US20190134039A1, “ANTIVIRAL JAK INHIBITORS USEFUL IN TREATING OR PREVENTING RETROVIRAL AND OTHER VIRAL INFECTIONS” (EMORY UNIVERSITY, priority 2011, published 2019).
Read-outs that look alike come from different tables or passages of the source.

What was measured:
Vero cells = assay: cells; settings: Chlorocebus sabaeus, read-out: IC50 in Vero cells *MTT Assay
[1] = tested on: acute infection in rhesus macaque lymphocytes; assay: cells; settings: Macaca mulatta, Lymphocyte
Description: (§1) The data (Shown in Table 5 below) are mean and standard deviations from at least three independent experiments.

[2] = tested on: acute infection in rhesus macaque macrophages; assay: cells; settings: for EC90: read-out: Acute infection in rhesus macaque macrophages EC90
Description: as §1

HIV-1 containing L74V = assay: microbe, parasite or virus in culture; format: cell-based
latent HIV-1 = assay: Reactivation of latent HIV-1, J-Lat latency T cell system; format: cell-based; settings: concentrations found during steady-state or Cmax in vivo
PBM cells = assay: cells; settings: Homo sapiens, PBMC, read-out: IC50 in PBM cells *Propidium Iodide assay
pSTAT3 = assay: cells
pSTAT5 = assay: cells
[3] = Human immunodeficiency virus 1, Lymphocyte

`N#CC[C@H](C1CCCC1)n1cc(-c2ncnc3[nH]ccc23)cn1` [Jakafi, Ruxolitinib] gave an IC50 (Vero cells) of 29300 ± 3700 nM, an EC50 ([1]; read-out: Acute infection in rhesus macaque lymphocytes EC50) of 90 ± 100 nM and an EC90 ([1]; read-out: Acute infection in rhesus macaque lymphocytes EC90) of 1300 ± 800 nM. The EC50 ([2]; Macaca mulatta, Macrophage, read-out: Acute infection in rhesus macaque macrophages EC50) was about 400 nM, the EC90 ([2]; Macaca mulatta, Macrophage) was about 4000 nM and the EC90 [2] was 4200 ± 1300 nM. The EC50 (HIV-1 containing L74V; [3]) was 100 ± 200 nM, the EC90 (HIV-1 containing L74V; [3]) was 3200 ± 2600 nM and the “FI50 (ratio of EC50 against mutant virus:EC50 against wild-type xxLAI)” value (HIV-1 containing L74V; L74V) was 0.5. For the same compound, the “FI90 (ratio of EC90 against mutant virus:EC90 against wild-type xxLAI)” value (HIV-1 containing L74V; L74V) was 0.5, the “inhibition of reactivation of latent HIV-1” value (latent HIV-1) was at least 50% and the IC50 (PBM cells) was over 50000 nM. It also gave an EC50 (pSTAT3; read-out: EC50 pSTAT3) of under 10 nM, an EC90 (pSTAT3; read-out: EC90 pSTAT3) of 10 nM and an EC50 (pSTAT5; read-out: EC50 pSTAT5) of under 10 nM. It also gave an EC90 (pSTAT5; read-out: EC90 pSTAT5) of under 10 nM.
